Where two headings read alike, the source gives them in different places.
Molecular target: Monoacylglycerol Lipase (MAGL) (Homo sapiens (Human), UniProt Q99685)
Experiment: MAGL inhibition potency (IC50) assay with 4NPA substrate
Assay type: biochemical
Text: The potency of certain compounds for inhibiting MAGL were obtained using the following assays. The monoacylglycerol lipase inhibitor screening assay kit from Cayman Chemical was used to measure the MAGL potency for the compounds in Table 6 and Table 7. Cayman's Monoacylglycerol Lipase Inhibitor Screening Assay provides a method for screening human MAGL inhibitors. MAGL hydrolyzes 4-nitrophenylacetate resulting in a yellow product, 4-nitrophenol, with an absorbance of 405-412 nm. MAGL Inhibition was measured by the following assay. Monoacylglycerol Lipase (MAGL) inhibition was measured using recombinant MAGL enzyme (aa 2-303 RBC, internal preparation) and the substrate 4-Nitrophenyl acetate (4NPA) (Sigma-Aldrich, N8130). Hydrolysis of the substrate in the presence of the enzyme was measured by absorbance at 405 nm. 10 μL of assay buffer (10 mM Tris pH 7.5, 1 mM EDTA, 0.9% DMSO) was added to a black 384-well non-binding plate with clear bottom (Greiner, 781906) for each reaction. […] DMSO control wells were included for reference. A 10.8 nM (1.8×) MAGL mix in assay buffer was prepared, with 25 μL added to each reaction well, for a final assay concentration of 6 nM. No enzyme wells received 25 μL of buffer. Plate was incubated at room temperature for 30 minutes. 35 mM solution of 4NPA in methanol was prepared daily. A 4.5×4NPA substrate solution was prepared in assay buffer and 10 μL was added to each reaction well, for a final assay concentration of 0.25 mM. Plate was spun for 1 minute at 1000 rpm before measuring absorbance using a CLARIOstar plate reader (BMG Labtech). A kinetic reading at 405 nm was done every minute for 30 minutes. Data was analyzed using the linear slope of the reaction progress curve and the average of the no-enzyme wells (background) was subtracted from the data. The background-subtracted slope data was converted to % activity using the average of wells with enzyme and DMSO vehicle. IC50s were calculated using GraphPad software (Sigmoidal dose response, variable slope equation). […] Table 8 provides potency measurements of MAGL inhibition measured using the Potency Assay of Example 22 above, with the following modifications described in Table C. [table]

[1] = Method 14: Reaction Biology MAGL enzyme, 6 nM, read-out: MAGL Potency (Detection Method)
[2] = Method 14: Reaction Biology MAGL enzyme, 6 nM, read-out: Potency (MAGL inhibition)
[3] = Method 6: Reaction Biology MAGL enzyme, 6 nM, read-out: Potency (MAGL inhibition)
[4] = Method 6: Reaction Biology MAGL enzyme, 6 nM, read-out: MAGL Potency (Detection Method)

Monoacylglycerol Lipase (MAGL), sequence (Q99685 2-303): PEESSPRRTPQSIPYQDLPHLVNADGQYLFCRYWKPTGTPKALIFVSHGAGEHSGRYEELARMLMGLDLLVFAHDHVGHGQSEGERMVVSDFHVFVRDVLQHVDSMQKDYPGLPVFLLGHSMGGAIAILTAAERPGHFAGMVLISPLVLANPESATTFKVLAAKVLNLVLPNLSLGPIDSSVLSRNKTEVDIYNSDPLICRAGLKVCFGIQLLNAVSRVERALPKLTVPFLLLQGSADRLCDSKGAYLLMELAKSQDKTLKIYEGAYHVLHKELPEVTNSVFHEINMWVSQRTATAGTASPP

For `Cc1cc(C2CC3(C2)CN(C(=O)c2ccc(F)cc2OC2CC2)C3)n(-c2ccccc2C)n1` [Compound 374, (2-cyclopropoxy-4-fluorophenyl) {6-[3-methyl-1-(o-tolyl)-5-pyrazolyl]-2-aza-2-spiro[3.3]heptyl}methanone], which IC50 [1] is on record?
The IC50 was 0.15 to 0.5 µM.

`O=C(c1cc(O)ccc1F)N1CC2(CC(n3ncnc3-c3ccccc3Cl)C2)C1` [Compound 376, {6-[5-(o-chlorophenyl)-1H-1,2,4-triazol-1-yl]-2-aza-2-spiro[3.3]beptyl}(2-fluoro-5-hydroxyphenyl)methanone] was tested. Which IC50 [1] did it give?
The IC50 was 0.05 to 0.15 µM.

How did the IC50 [1] turn out when `O=C(c1cc(O)ccc1F)N1CC2(CC(c3nnc(-c4ccccc4Cl)o3)C2)C1` [Compound 377, {6-[5-(o-chlorophenyl)-1,3,4-oxadiazol-2-yl]-2-aza-2-spiro[3.3]heptyl}(2-fluoro-5-hydroxyphenyl)methanone] was run?
Its IC50 is 0.5 to 1 µM.

For `Cc1ccccc1-c1nnc(C2CC3(C2)CN(C(=O)c2cc(O)ccc2F)C3)o1` [Compound 378, (2-fluoro-5-hydroxyphenyl){6-[5-(o-tolyl)-1,3,4-oxadiazol-2-yl]-2-aza-2-spiro[3.3]heptyl}methanone], which IC50 [1] is on record?
The IC50 was 0.5 to 1 µM.

`Cc1cc(F)ccc1-n1c(C)cnc1C1CC2(C1)CN(C(=O)c1cc(O)ccc1F)C2` [Compound 380, (2-fluoro-5-hydroxyphenyl){6-[1-(4-fluoro-2-tolyl)-5-methyl-2-imidazolyl]-2-aza-2-spiro[3.3]heptyl}methanone] was tested. Which IC50 [1] did it give?
The IC50 was 1 to 5.1 µM.

How did the IC50 [1] turn out when `Cc1ccccc1-c1ccn(C(=O)C2CC3(C2)CN(C(=O)c2cc(O)ccc2F)C3)n1` [Compound 381, {2-(2-fluoro-5-hydroxybenzoyl)-2-aza-6-spiro[3,3]heptyl}[3-(o-tolyl)-1-pyrazolyl]methanone] was run?
Its IC50 is 0.15 to 0.5 µM.

For `O=C(c1cc(O)ccc1F)N1CC2(CC(C(=O)N3CCOCC3)C2)C1` [Compound 384], which IC50 [2] is on record?
Its IC50 is > 10 µM.

With `O=C(c1cc(O)ccc1F)N1CC2(CC(C(=O)N3CCCC3)C2)C1` [Compound 388] as the compound, how does the IC50 [2] read?
Its IC50 is > 10 µM.

How did the IC50 [2] turn out when `O=C(c1cc(O)ccc1F)N1CC2(CC(C(=O)N3CCC4(COC4)C3)C2)C1` [Compound 391] was run?
Its IC50 is > 10 µM.

How did the IC50 [2] turn out when `O=C(NCC1COC1)C1CC2(C1)CN(C(=O)c1cc(O)ccc1F)C2` [Compound 395] was run?
Its IC50 is > 10 µM.

With `O=C(c1cc(O)ccc1F)N1CC2(CC(C(=O)N3CCC4(CCCO4)C3)C2)C1` (centres unmarked) [Compound 400] as the compound, how does the IC50 [2] read?
The IC50 was > 10 µM.

Which IC50 [1] does the source give for `O=C(c1cc(O)ccc1F)N1CC2(CC(c3nccn3-c3ccccc3)C2)C1` [Compound 401, (2-fluoro-5-hydroxyphenyl){6-(1-phenyl-2-imidazolyl)-2-aza-2-spiro[3.3]heptyl}methanone] here?
Its IC50 is 0.5 to 1 µM.

Which IC50 [2] does the source give for `Cc1cc(C2CC3(C2)CN(C(=O)c2ccc4c(c2)OCC4)C3)n(-c2ccccc2C)n1` [Compound 402] here?
Its IC50 is > 10 µM.

For `Cc1cc(C2CC3(C2)CN(C(=O)c2cccc4c2CCO4)C3)n(-c2ccccc2C)n1` [Compound 403], which IC50 [2] is on record?
The IC50 was > 10 µM.

With `Cc1cnn(C2CC3(C2)CN(C(=O)c2cc(O)ccc2F)C3)c1-c1ccccc1Cl` [Compound 404] as the compound, how does the IC50 [3] read?
Its IC50 is > 10 µM.

`Cc1ccccc1-c1ccnn1C1CC2(C1)CN(C(=O)c1cc(O)ccc1F)C2` [Compound 405] was tested. Which IC50 [3] did it give?
The IC50 was > 10 µM.

For `Cc1cc(-c2ccccc2C)n(C2CC3(C2)CN(C(=O)c2cc(O)ccc2F)C3)n1` [Compound 406], which IC50 [3] is on record?
The IC50 was > 10 µM.

`Cc1cc(F)c(C(=O)N2CC3(CC(n4ncc(C)c4-c4ccccc4C)C3)C2)cc1O` [Compound 407] was tested. Which IC50 [4] did it give?
Its IC50 is 0.05 to 0.15 µM.

`Cc1cnn(C2CC3(C2)CN(C(=O)c2cc(O)ccc2F)C3)c1-c1ccccc1F` [Compound 408, (2-fluoro-5-hydroxyphenyl){6-[5-(o-fluorophenyl)-4-methyl-1-pyrazolyl]-2-aza-2-spiro[3.3]heptyl}methanone] was tested. Which IC50 [4] did it give?
Its IC50 is 0.05 to 0.15 µM.

For `O=C(c1cc(O)ccc1F)N1CC2(CC(n3ncc(C4CC4)c3-c3ccccc3Cl)C2)C1` [Compound 411, {6-[5-(o-chlorophenyl)-4-cyclopropyl-1-pyrazolyl]-2-aza-2-spiro[3.3]heptyl}(2-fluoro-5-hydroxyphenyl)methanone], which IC50 [4] is on record?
The IC50 was 0.15 to 0.5 µM.

`Cc1cc(-c2cc(F)ccc2C)n(C2CC3(C2)CN(C(=O)c2cc(O)ccc2F)C3)n1` [Compound 415, (2-fluoro-5-hydroxyphenyl){6-[5-(5-fluoro-2-tolyl)-3-methyl-1-pyrazolyl]-2-aza-2-spiro[3.3]heptyl}methanone] was tested. Which IC50 [4] did it give?
Its IC50 is 0.05 to 0.15 µM.

How did the IC50 [3] turn out when `Cc1cn(C2CC3(C2)CN(C(=O)c2cc(O)ccc2F)C3)nc1-c1ccccc1Cl` [Compound 416] was run?
The IC50 was > 10 µM.

`Cc1cn(C2CC3(C2)CN(C(=O)c2cc(O)ccc2F)C3)nc1-c1ccccc1F` [Compound 417, (2-fluoro-5-hydroxyphenyl){6-[3-(o-fluorophenyl)-4-methyl-1-pyrazolyl]-2-aza-2-spiro[3.3]heptyl}methanone] was tested. Which IC50 [4] did it give?
Its IC50 is < 0.05 µM.

How did the IC50 [4] turn out when `Cc1ccccc1-c1c(C)cnn1C1CC2(C1)CN(C(=O)c1ccc(F)cc1OC1CC1)C2` [Compound 419, (2-cyclopropoxy-4-fluorophenyl){6-[4-methyl-5-(o-tolyl)-1-pyrazolyl]-2-aza-2-spiro[3.3]heptyl}methanone] was run?
The IC50 was 1 to 5.1 µM.

`Cc1cnn(C2CC3(C2)CN(C(=O)c2ccc(F)cc2OC2CC2)C3)c1-c1ccccc1C(F)(F)F` [Compound 420, (2-cyclopropoxy-4-fluorophenyl)(6-{4-methyl-5-[o-(trifluoromethyl)phenyl]-1-pyrazolyl}-2-aza-2-spiro[3.3]heptyl)methanone] was tested. Which IC50 [4] did it give?
Its IC50 is 1 to 5.1 µM.

Which IC50 [4] does the source give for `Cc1ccc(F)cc1-c1c(C)cnn1C1CC2(C1)CN(C(=O)c1ccc(F)cc1OC1CC1)C2` [Compound 422, (2-cyclopropoxy-4-fluorophenyl){6-[5-(5-fluoro-2-tolyl)-4-methyl-1-pyrazolyl]-2-aza-2-spiro[3.3]beptyl}methanone] here?
The IC50 was 1 to 5.1 µM.

How did the IC50 [4] turn out when `Cc1cc(-c2cc(F)ccc2C)n(C2CC3(C2)CN(C(=O)c2ccc(F)cc2OC2CC2)C3)n1` [Compound 423, (2-cyclopropoxy-4-fluorophenyl){6-[5-(5-fluoro-2-tolyl)-3-methyl-1-pyrazolyl]-2-aza-2-spiro[3.3]heptyl}methanone] was run?
Its IC50 is 1 to 5.1 µM.

How did the IC50 [3] turn out when `O=C(c1ccc(F)cc1OC1CC1)N1CC2(CC(n3nc(C(F)(F)F)cc3-c3ccccc3C(F)(F)F)C2)C1` [Compound 424, (2-cyclopropoxy-4-fluorophenyl)(6-(3-(trifluoromethyl)-5-(2-(trifluoromethyl)phenyl)-1H-pyrazol-1-yl)-2-azaspiro[3.3]heptan-2-yl)methanone] was run?
The IC50 was > 10 µM.

With `Cc1cn(C2CC3(C2)CN(C(=O)c2ccc(F)cc2OC2CC2)C3)nc1-c1ccccc1F` [Compound 425, (2-cyclopropoxy-4-fluorophenyl){6-[3-(o-fluorophenyl)-4-methyl-1-pyrazolyl]-2-aza-2-spiro[3.3]heptyl}methanone] as the compound, how does the IC50 [4] read?
The IC50 was 0.15 to 0.5 µM.

`Cc1cc(-c2cc(F)ccc2C)n(C2CC3(C2)CN(C(=O)c2ccc(F)cc2OC(F)(F)F)C3)n1` [Compound 427] was tested. Which IC50 (Method 11: Reaction Biology MAGL enzyme, 25 nM (name: Conc 20), read-out: Potency (MAGL inhibition)) did it give?
The IC50 was > 10 µM.

For `Cc1cc(-c2cc(F)ccc2C)n(C2CC3(C2)CN(C(=O)c2ccc(F)cc2OC(F)F)C3)n1` [Compound 428], which IC50 [4] is on record?
The IC50 was 0.15 to 0.5 µM.

How did the IC50 (Method 11: Reaction Biology MAGL enzyme, 25 nM (name: Conc 20), read-out: MAGL Potency (Detection Method)) turn out when `Cc1ccc(F)cc1-c1cc(C)n(C2CC3(C2)CN(C(=O)c2ccc(F)cc2OCF)C3)n1` [Compound 437, (4-fluoro-2-fluoromethoxyphenyl){6-[3-(5-fluoro-2-tolyl)-5-methyl-1-pyrazolyl]-2-aza-2-spiro[3.3]heptyl}methanone] was run?
Its IC50 is 1 to 5.1 µM.

Which IC50 [4] does the source give for `COc1cc(F)ccc1C(=O)N1CC2(CC(n3nc(-c4cc(F)ccc4C)cc3C)C2)C1` [Compound 439, (4-fluoro-2-methoxyphenyl){6-[3-(5-fluoro-2-tolyl)-5-methyl-1-pyrazolyl]-2-aza-2-spiro[3.3]heptyl}methanone] here?
Its IC50 is 1 to 5.1 µM.

Which IC50 [1] does the source give for `Cc1ccccc1-c1nn(C2CC3(C2)CN(C(=O)c2cc(O)ccc2F)C3)cc1C` [Compound 440, (2-fluoro-5-hydroxyphenyl){6-[4-methyl-3-(o-tolyl)-1-pyrazolyl]-2-aza-2-spiro[3.3]heptyl}methanone] here?
Its IC50 is < 0.05 µM.

For `Cc1ccccc1-c1ccn(C2CC3(C2)CN(C(=O)c2cc(O)ccc2F)C3)n1` [Compound 441], which IC50 [3] is on record?
The IC50 was > 10 µM.

For `Cc1ccccc1-c1cc(C)n(C2CC3(C2)CN(C(=O)c2cc(O)ccc2F)C3)n1` [Compound 442], which IC50 [3] is on record?
The IC50 was > 10 µM.

Which IC50 [4] does the source give for `Cc1cc(F)c(C(=O)N2CC3(CC(n4cc(C)c(-c5ccccc5C)n4)C3)C2)cc1O` [Compound 443] here?
The IC50 was 1 to 5.1 µM.

`Cc1cn(C2CC3(C2)CN(C(=O)c2cc(O)ccc2F)C3)nc1-c1ccccc1C(F)(F)F` [Compound 444, (2-fluoro-5-hydroxyphenyl)(6-{4-methyl-3-[o-(trifluoromethyl)phenyl]-1-pyrazolyl}-2-aza-2-spiro[3.3]heptyl)methanone] was tested. Which IC50 [4] did it give?
Its IC50 is < 0.05 µM.

Source: patent US20240308985A1 (Psy Therapeutics, Inc., priority 2021, published 2024)
